The text below walks through data of paper PMC5085761 (International Journal of Molecular Sciences, 2016).

The target of one assay is T1, human P-gp (Homo sapiens, UniProt P08183).
T1 construct: purchased GenoMembrane Co., Ltd. (Kanagawa, Japan); host or cells: Sf9
Briefly: Inhibition of tracer uptake in P-gp-expressing vesicles. The class given is in vitro ADME. The note with it: tracer [3H]digoxin 1 µM. The procedure: For ABC transporters, experimental kits containing Sf9-derived vesicles with high expression levels of human P-gp, MRP4, BCRP, and each ABC transporter (including buffer, ATP/AMP solution, and glutathione) were purchased from GenoMembrane Co., Ltd. (Kanagawa, Japan).
Vesicular transport assays were carried out according to the manufacturer’s protocol. […] The reaction was started by suspending 50 μg of vesicles (10 μL) in 40 μL of the reaction buffer. After incubation for an appropriate period of time, the reaction was stopped by the addition of ice-cold stop buffer (40 mM MOPS-Tris and 70 mM KCl; pH 7.0), after which the solution was filtered through a 0.45 μm HA filter (Millipore Corp., Billerica, MA, USA) using suction, and was washed twice in 5 mL of ice-cold stop buffer. The radioactivity of the filter was measured with a Tri-Carb 2910TR liquid scintillation counter (PerkinElmer) using Ultima Gold (PerkinElmer). The amount of tracer uptake was normalized to the membrane protein amount described in the product information sheets.

Another assay addresses T2, OATP1B1 (Homo sapiens, UniProt Q9Y6L6).
T2 construct: host or cells: HEK293
T2 sequence (Q9Y6L6 1-691): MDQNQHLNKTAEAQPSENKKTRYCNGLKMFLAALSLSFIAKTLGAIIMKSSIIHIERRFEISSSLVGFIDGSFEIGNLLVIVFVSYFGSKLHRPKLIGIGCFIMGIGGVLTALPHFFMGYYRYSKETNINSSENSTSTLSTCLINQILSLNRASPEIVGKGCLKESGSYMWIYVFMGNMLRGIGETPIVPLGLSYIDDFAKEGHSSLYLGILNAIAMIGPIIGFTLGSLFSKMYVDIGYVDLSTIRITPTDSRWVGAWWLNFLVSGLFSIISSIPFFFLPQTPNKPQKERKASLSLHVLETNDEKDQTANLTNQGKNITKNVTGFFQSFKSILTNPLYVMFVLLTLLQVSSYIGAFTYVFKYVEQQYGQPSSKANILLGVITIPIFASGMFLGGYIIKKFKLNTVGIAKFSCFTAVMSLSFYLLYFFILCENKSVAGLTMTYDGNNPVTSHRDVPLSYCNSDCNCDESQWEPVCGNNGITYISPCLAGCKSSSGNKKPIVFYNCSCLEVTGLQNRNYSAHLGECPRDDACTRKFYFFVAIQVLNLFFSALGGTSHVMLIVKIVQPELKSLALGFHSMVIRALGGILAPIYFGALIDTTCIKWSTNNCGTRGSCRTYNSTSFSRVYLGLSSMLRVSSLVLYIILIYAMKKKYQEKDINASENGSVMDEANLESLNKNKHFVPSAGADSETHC
Briefly: Inhibition of tracer uptake in OATP1B1-expressing cells. Type of assay: in vitro ADME. As to conditions: OATP1B1, tracer [3H]E2G 0.1 µM. The procedure:
For the SLC transporter experiments, Mock Flp-in-293 cells (Flp/mock), OAT1-expressing Flp-in-293 cells (Flp/OAT1), mock HEK293 cells (HEK/mock), and OATP1B3-expressing HEK293 cells (HEK/OATP1B3) were obtained from Kanazawa University (Ishikawa, Japan). Briefly, Flp-in-293 and HEK293 cells were transfected with the appropriate plasmid DNA and selected using antibiotics (hygromycin or G-418). All cell lines were cultured in DMEM (Life Technologies Japan) supplemented with 10% (v/v) fetal bovine serum (American Type Culture Collection) and antibiotics (100 U/mL penicillin and 100 μg/mL streptomycin (Life Technologies Japan) for mock cells, 0.2 mg/mL hygromycin for Flp/OAT1 cells, and 1.2 mg/mL G-418 (Roche Diagnostics K.K., Tokyo, Japan) for HEK/OATP1B3 cells) at 37 °C under an atmosphere containing 5% CO2. […]
The experiments were performed as described previously, with minor modifications. […] The cells were lysed in 0.3 mL of 0.1N NaOH at room temperature, after which the radioactivity of each aliquot was measured as described above. The protein concentration of the cell lysate was determined with a VersaMax microplate reader (Molecular Devices Japan K.K., Osaka, Japan) or SpectraMax i3x (Molecular Devices Japan K.K.; only for OATP1B1) using a BCA Protein Assay Kit (Thermo Fisher Scientific, Kanagawa, Japan). Tracer uptake was expressed as pmol/mg protein. […]

T1 sequence (P08183 whole entry): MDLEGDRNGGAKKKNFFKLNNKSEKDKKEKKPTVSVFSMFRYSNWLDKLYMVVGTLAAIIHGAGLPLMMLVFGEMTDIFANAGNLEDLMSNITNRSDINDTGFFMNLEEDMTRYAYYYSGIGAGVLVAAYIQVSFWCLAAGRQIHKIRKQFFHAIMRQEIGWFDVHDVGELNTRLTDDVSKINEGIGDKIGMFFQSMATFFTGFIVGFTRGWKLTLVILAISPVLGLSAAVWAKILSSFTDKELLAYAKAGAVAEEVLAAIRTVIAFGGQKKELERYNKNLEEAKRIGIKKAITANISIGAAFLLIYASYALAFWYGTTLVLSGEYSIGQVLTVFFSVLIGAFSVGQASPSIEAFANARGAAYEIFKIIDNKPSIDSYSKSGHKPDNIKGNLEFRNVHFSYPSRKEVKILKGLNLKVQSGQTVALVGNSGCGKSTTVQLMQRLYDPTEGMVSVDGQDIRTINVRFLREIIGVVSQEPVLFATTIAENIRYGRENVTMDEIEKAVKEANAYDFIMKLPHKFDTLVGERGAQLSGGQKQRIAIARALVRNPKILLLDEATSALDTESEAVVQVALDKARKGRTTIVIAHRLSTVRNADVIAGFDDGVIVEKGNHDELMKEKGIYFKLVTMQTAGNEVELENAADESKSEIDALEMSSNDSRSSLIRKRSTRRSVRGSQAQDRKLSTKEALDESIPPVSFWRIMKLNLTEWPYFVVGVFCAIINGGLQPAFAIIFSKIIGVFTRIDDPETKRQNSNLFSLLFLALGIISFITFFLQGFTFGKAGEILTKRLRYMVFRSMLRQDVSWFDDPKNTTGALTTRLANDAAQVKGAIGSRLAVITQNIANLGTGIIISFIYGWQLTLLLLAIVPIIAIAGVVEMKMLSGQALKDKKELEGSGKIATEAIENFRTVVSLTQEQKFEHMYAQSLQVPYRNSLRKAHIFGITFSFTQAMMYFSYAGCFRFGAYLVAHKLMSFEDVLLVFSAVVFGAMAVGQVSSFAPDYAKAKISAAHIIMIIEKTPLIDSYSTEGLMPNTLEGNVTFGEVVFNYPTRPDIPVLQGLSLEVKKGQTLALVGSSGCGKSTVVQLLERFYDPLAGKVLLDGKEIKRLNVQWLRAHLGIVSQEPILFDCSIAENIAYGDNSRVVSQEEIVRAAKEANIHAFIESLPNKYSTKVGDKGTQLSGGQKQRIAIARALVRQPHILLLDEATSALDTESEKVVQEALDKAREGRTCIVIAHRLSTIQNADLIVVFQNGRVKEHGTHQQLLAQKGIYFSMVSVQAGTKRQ

The IC50 is the concentration that gives 50% inhibition. Regarding `N[C@]1(C(=O)O)C[C@@H](F)C1` [fluciclovine], the results for the half-inhibitory concentration (IC50) at human P-gp and against OATP1B1 were 2.95 ± 2.56 mM and 5.41 ± 2.49 mM, respectively.
